# Measurements reported in ChEMBL document CHEMBL1671629, “Penetration of chlorhexidine into human skin” (Antimicrob Agents Chemother, 2008).
# Columns and labels:
# Type in all cases: ADME, tissue-based
# [1] = system: Zone of skin; experiment: Drug permeation in top 100 micrometer sections of human skin using Franz-cell skin model assessed as compound penetration per mg tissue exposed to 2% wt/vol of compound administered topically measured after 2 mins exposure by HPLC
# [2] = system: Zone of skin; experiment: Drug permeation in top 100 micrometer sections of human skin using Franz-cell skin model assessed as compound penetration per mg tissue exposed to 2% wt/vol of compound administered topically measured after 30 mins exposure by HPLC; settings: 0.5 h
# [3] = system: Zone of skin; experiment: Drug permeation in deeper <300 micrometer sections of human skin using Franz-cell skin model assessed as compound penetration per mg tissue exposed to 2% wt/vol of compound administered topically measured after 2 mins exposure by HPLC
# [4] = system: Zone of skin; experiment: Drug permeation in deeper <300 micrometer sections of human skin using Franz-cell skin model assessed as compound penetration per mg tissue exposed to 2% wt/vol of compound administered topically measured after 30 mins exposure by HPLC; settings: 0.5 h
# [5] = system: Zone of skin; experiment: Drug permeation in top 100 micrometer sections of human skin using Franz-cell skin model assessed as compound penetration per mg tissue exposed to 2% wt/vol of compound administered topically measured after 24 hrs exposure by HPLC
# [6] = system: Zone of skin; experiment: Drug permeation in deeper <300 micrometer sections of human skin using Franz-cell skin model assessed as compound penetration per mg tissue exposed to 2% wt/vol of compound administered topically measured after 24 hrs exposure by HPLC
smiles,measurement,setting,value
N=C(NCCCCCCNC(=N)NC(=N)Nc1ccc(Cl)cc1)NC(=N)Nc1ccc(Cl)cc1.O=C(O)[C@H](O)[C@@H](O)[C@H](O)[C@H](O)CO,tissue concentration,[1],0.157 µg/mg
same,tissue concentration,[2],0.077 µg/mg
same,Drug uptake,[3],< 0.002 µg
same,Drug uptake,[4],< 0.002 µg
same,tissue concentration,[5],7.88 µg/mg
same,Drug uptake,[6],< 1 µg
